Measurements as given in ChEMBL document CHEMBL1155480, “Selective one-pot multicomponent synthesis and anti-tubercular evaluation of 5-(aryl/cyclohexylsulfanyl)-2-alkoxy-4,6-diarylnicotinonitriles” (2010).
In brackets after ≈: the same amount, converted by molar mass.

System: Mycobacterium tuberculosis
Test: Antimycobacterial activity against Mycobacterium tuberculosis H37Rv by agar dilution method
Format: functional

Compound	MIC
COc1nc(-c2ccc(Cl)cc2)c(Sc2ccc(Cl)cc2)c(-c2ccccc2)c1C#N	27.1 µM (≈ 12.6 µg/mL)
CCOc1nc(-c2ccc([N+](=O)[O-])cc2)c(SC2CCCCC2)c(-c2ccc(N(C)C)cc2)c1C#N	12.5 µM (≈ 6.28 µg/mL)
CCOc1nc(-c2ccc(Cl)cc2)c(Sc2ccc(C)cc2)c(-c2ccc(N(C)C)cc2)c1C#N	> 50 µM
CCOc1nc(-c2ccc(Cl)cc2)c(SC2CCCCC2)c(-c2ccccc2)c1C#N	27.8 µM (≈ 12.5 µg/mL)
CCOc1nc(-c2ccc(Cl)cc2)c(Sc2ccccc2)c(-c2ccc(Cl)cc2)c1C#N	26.2 µM (≈ 12.5 µg/mL)
COc1nc(-c2ccc(Cl)cc2)c(SC2CCCCC2)c(-c2ccc(N(C)C)cc2)c1C#N	13.1 µM (≈ 6.26 µg/mL)
CCOc1nc(-c2ccc(OC)cc2)c(Sc2ccc(Cl)cc2)c(-c2ccc(N(C)C)cc2)c1C#N	24.2 µM (≈ 12.5 µg/mL)
COc1nc(-c2ccc(Cl)cc2)c(SC2CCCCC2)c(-c2ccccc2Cl)c1C#N	13.3 µM (≈ 6.24 µg/mL)
NNC(=O)c1ccncc1 [ISONIAZID]	0.4 µM (≈ 0.0549 µg/mL)
CCOc1nc(-c2ccccc2)c(SC2CCCCC2)c(-c2ccccc2)c1C#N	25 µM (≈ 10.4 µg/mL)
CCOc1nc(-c2ccc(Cl)cc2)c(Sc2ccc(C)cc2)c(-c2ccc(OC)cc2)c1C#N	51.3 µM (≈ 25 µg/mL)
COc1ccc(-c2c(C#N)c(OC)nc(-c3ccc(Cl)cc3)c2SC2CCCCC2)cc1	26.9 µM (≈ 12.5 µg/mL)
COc1nc(-c2ccc(Cl)cc2)c(SC2CCCCC2)c(-c2ccccc2)c1C#N	57.6 µM (≈ 25.1 µg/mL)
CCOc1nc(-c2ccc([N+](=O)[O-])cc2)c(SC2CCCCC2)c(-c2ccccc2)c1C#N	6.8 µM (≈ 3.13 µg/mL)
CCOc1nc(-c2ccc(Cl)cc2)c(SC2CCCCC2)c(-c2ccc(C)cc2)c1C#N	27 µM (≈ 12.5 µg/mL)
NC(=O)c1cnccn1 [PYRAZINAMIDE]	50.8 µM (≈ 6.25 µg/mL)
CCOc1nc(-c2ccc(Cl)cc2)c(SC2CCCCC2)c(-c2ccc(Cl)cc2)c1C#N	6.5 µM (≈ 3.14 µg/mL)

Compound	MIC
COc1nc(-c2ccc(Cl)cc2)c(SC2CCCCC2)c(-c2ccc(C)cc2)c1C#N	28 µM (≈ 12.6 µg/mL)
CCOc1nc(-c2ccc(Cl)cc2)c(SC2CCCCC2)c(-c2ccc(N(C)C)cc2)c1C#N	25.4 µM (≈ 12.5 µg/mL)
CCOc1nc(-c2ccc(Br)cc2)c(Sc2ccc(Cl)cc2)c(-c2ccc(N(C)C)cc2)c1C#N	5.6 µM (≈ 3.16 µg/mL)
CCOc1nc(-c2ccc(Cl)cc2)c(Sc2ccc(C)cc2)c(-c2ccccc2)c1C#N	54.8 µM (≈ 25 µg/mL)
CCOc1nc(-c2ccc(Cl)cc2)c(Sc2ccc(Cl)cc2)c(-c2ccccc2)c1C#N	13.1 µM (≈ 6.25 µg/mL)
COc1nc(-c2ccccc2)c(Sc2ccc(Cl)cc2)c(-c2ccc(Cl)cc2)c1C#N	27 µM (≈ 12.5 µg/mL)
COc1nc(-c2ccc(Cl)cc2)c(Sc2ccc(Cl)cc2)c(-c2ccc(Cl)cc2)c1C#N	3.1 µM (≈ 1.54 µg/mL)
COc1nc(-c2ccc(Cl)cc2)c(Sc2ccc(Cl)cc2)c(-c2ccc(N(C)C)cc2)c1C#N	12.4 µM (≈ 6.28 µg/mL)
CCOc1nc(-c2ccc(Cl)cc2)c(Sc2ccc(OC)cc2)c(-c2ccc(N(C)C)cc2)c1C#N	48.5 µM (≈ 25 µg/mL)
CC[C@@H](CO)NCCN[C@@H](CC)CO [ETHAMBUTOL]	7.6 µM (≈ 1.55 µg/mL)
COc1nc(-c2ccc(Cl)cc2)c(SC2CCCCC2)c(-c2ccc(Cl)cc2)c1C#N	13.3 µM (≈ 6.24 µg/mL)
COc1ccc(-c2c(C#N)c(OC)nc(-c3ccc(Cl)cc3)c2Sc2ccc(Cl)cc2)cc1	25.4 µM (≈ 12.5 µg/mL)
CCOc1nc(-c2ccc(Cl)cc2)c(Sc2ccc(C)cc2)c(-c2ccc(Cl)cc2)c1C#N	25.5 µM (≈ 12.5 µg/mL)
COc1nc(-c2ccccc2)c(Sc2ccc(Cl)cc2)c(-c2ccc(N(C)C)cc2)c1C#N	26.5 µM (≈ 12.5 µg/mL)
CCOc1nc(-c2ccc(Cl)cc2)c(Sc2ccccc2)c(-c2ccc(N(C)C)cc2)c1C#N	> 51.4 µM
CCOc1nc(-c2ccc(C)cc2)c(SC2CCCCC2)c(-c2ccc(N(C)C)cc2)c1C#N	26.5 µM (≈ 12.5 µg/mL)
